Tests used:
IFNγ = test: LPS-induced IFNγ release from THP-1 Lucia monocytes (multiplex electrochemiluminescence); format: cell-based, human; settings: Dex 1 μM; 2 1 pM; LPS 50 ng/mL, 24 h
Experimental: (§1) LXA41 and all of the tested sLXms were dissolved in ethanol and further diluted in a culture medium (final ethanol concentration 0.1%; equivalent concentrations were used as the vehicle control). Prior to in vitro experiments, THP-1-Lucia NF-κB cells were harvested and plated at 1 × 10^5 cells/well on 96-well plates and left to settle in the incubator at 37 °C, 95% humidity, and 5% CO2, in 0.1% FBS-containing media, pretreated for 30 min with increasing doses of LXA41, sLXms (from 10^–12 to 10^–6 M), or appropriate controls, followed by stimulation with 50 ng/mL LPS for 24 h. Untreated (Unt) or vehicle-treated (Veh) cells were used as negative controls; 1 pM (1R)-5, the (1R)-epimer of the benzo-mimetic, was used as a positive control for any aromatic mimetic; and, finally, we compared the observed effects to the conventional glucocorticoid dexamethasone (Dex) treatment, at 1 μM.
(§2) After 24 h of exposure to LXA41, sLXms, or vehicle, followed by LPS stimulation (50 ng/mL), as described above, THP-1-Lucia NF-κB-cell supernatants were collected and cleared by centrifugation. Concentrations of IFN-γ, IL-1β, IL-6, IL-8, IL-10, IL-12p70, and TNF-α in culture supernatants were assessed by electro-chemi-luminescent detection, using a commercially available human 96-well plate “multiplex” (several analytes in the same well) kit for tissue culture samples, according to the manufacturers’ guidelines.
(§3) The “coding” of the heat-map indicates the arbitrary criteria to assign points to each single PD component (efficacy = Imax or Emax; potency = IC50 or EC50; slope = HS) to generate a final (aggregate) relative PD score. If a single PD component was greater than the reference level (x > 1), then the single-component relative score was arbitrarily set to +1 (light green) or +2 (dark green). If a single PD component was equal to the reference level (x = 1), then the single-component relative score was arbitrarily set to 0 (gray). If a single PD component was smaller than the reference level (x < 1), then the single-component relative score was arbitrarily set to −1 (light red) or −2 (dark red). If the curve of a single PD component was best fitting to a flat line (x = 0), then the single-component relative score was arbitrarily set to −4 (purple) (Table S1).

THP-1 LUCIA monocytes [1] = test: Intrinsic cytotoxicity: LDH release without LPS; format: cell-based, human; settings: absence of LPS, 24 h; controls Dex 1 μM, 2 1 pM, 5 1 pM
Experimental: (§4) We investigated the potential cytotoxicity of all candidate sLXms by assaying LDH release.[50] The response to LPS was arbitrarily set to 100%, and values were expressed relative to this. As previously reported by others, LPS provokes LDH release.[51] […] Ultimately, untreated cells defined the spontaneous cell release thresholds.
(§5) Lactate dehydrogenase (LDH) was assayed in cell supernatants to investigate possible cytotoxicity of the lead compound. LDH is rapidly released into the culture medium after disruption of the plasma membrane.[67],[69] After 24 h of exposure to sLXms, vehicle, or controls, followed by LPS stimulation, as described above, THP-1-Lucia NF-κB-cell supernatants were collected and LDH was assayed. Cytotoxicity was evaluated relative to vehicle controls. Maximum releasable LDH was determined in cells lysed with 2% Triton-X-100 (Sigma-Aldrich, Ireland). LDH levels were assessed by reading the absorbance at 490 nm (protein) and 690 nm (background noise), using a spectrophotometer (SPECTRAMAX M2, Molecular Devices (U.K.) Limited).

C57BL/6J mice = test: Murine zymosan-induced peritonitis; format: in vivo, mouse
Experimental: Male C57BL/6J mice of 9 weeks of age were purchased from Charles River (Kent, U.K.) and were housed in a specific pathogen-free facility in individually ventilated and filtered cages under positive pressure. Peritonitis was induced in mice by ip injection of zymosan (purchased from Sigma-Aldrich; 1 mg per mouse in 0.5 mL of phosphate-buffered saline (PBS)).[73] Mice were treated with dexamethasone (1 μg/g) purchased from Sigma-Aldrich 1 h prior to zymosan injection or (R)-6 (2 and 6 ng/g) (200 μL IP) 30 min prior to zymosan injection. Peritoneal cells were collected by lavage 4 h after injection of zymosan. The local Animal Use and Care Committee and The UK Home Office approved the animal experiments in accordance with the derivatives of both The Home Office Guidance on the Operation of Animals (Scientific Procedures) Act 1986 and The Guide for the Care and Use of Laboratory Animals of the National Research Council.
Surface marker expression on peritoneal cells was assessed by flow cytometry with data collection on a FACSCalibur (Becton Dickinson). Data were analyzed with FlowJo analysis software (Treestar Inc.). Cells were stained with AlexaFluor488 conjugated anti-F4/80 (clone BM8; eBioscience); APC conjugated anti-CD11b (clone M1/70; eBioscience) and Pacific blue conjugated anti-Ly6G (clone 1A8; BioLegend) antibodies. Prior to surface staining, peritoneal cells were counted manually (Neubauer chamber) with Turks solution. Using appropriate fluorescence minus one (FMO) controls, quadrants were drawn, and data were plotted on logarithmic-scale density- or dot-plots.

IL-6 = test: LPS-induced IL-6 release from THP-1 Lucia monocytes (multiplex electrochemiluminescence); format: cell-based, human; settings: Dex 1 μM; 2 1 pM; LPS 50 ng/mL, 24 h
Experimental: as §1, §2, §3

THP-1 LUCIA monocytes [2] = test: Extrinsic cytotoxicity: LDH release after LPS challenge; format: cell-based, human; settings: Dex 1 μM
Experimental: as §4, §5

IL-1β = test: LPS-induced IL-1β release from THP-1 Lucia monocytes (multiplex electrochemiluminescence); format: cell-based, human; settings: Dex 1 μM; 2 1 pM; LPS 50 ng/mL, 24 h
Experimental: as §1, §2, §3

IL-8 = test: LPS-induced IL-8 release from THP-1 Lucia monocytes (multiplex electrochemiluminescence); format: cell-based, human; settings: Dex 1 μM; 1 1 nM; (R)-6 concentration not given
Experimental: as §1, §2

wild-type HEK-293 cells = test: Intracellular calcium flux in wild-type HEK-293 (specificity control); format: cell-based, human
Experimental: (§6) To explore the mechanism of action through which the sLXm lead compound exerts the effects seen here, its interaction with the ALX/FPR2 receptor was investigated and agonist-induced intracellular calcium transients were measured using an engineered cell line stably overexpressing the ALX/FPR2 receptor and the Gαq subunit coupled to it (Figure S6). Wild-type HEK cells were used as controls, to verify the specificity of the agonism toward ALX/FPR2, as previously reported.[36] Briefly, prior to cell plating, sterile 96-well plates (black-sided with optically clear glass flat bottoms) were PDL-coated overnight. Subsequently, 2 × 10^5 wild-type cells and overexpressed cells/well were cultured for 18 h in DMEM complete media (containing Ca^2+ and Mg^2+) to facilitate adherence prior to labeling with Fluo-4 dye. After 1 h of incubation at 37 °C with Fluo-4, cells were gently washed twice and placed in 100% Hanks’ balanced salt solution (HBSS; 37 °C) before reading the fluorescence (485/535 nm), using a spectrophotometer conjugated with an injection system (Clariostar BMG LABTECH plate reader), allowing addition to the cells of controls (1 mM ATP, a GPCR purinergic agonist, 2 nM Wp, a synthetic ALX/FPR2 agonist) or experimental treatments [10 pM, 1 nM, and 100 nM LXA41 or (R)-6].

ALX/FPR2 receptor = molecular target: T1, ALX/FPR2 receptor (Homo sapiens, UniProt P25090); test: Intracellular calcium flux in FPR2+/Gαq+ stably transfected HEK-293; format: cell-based; settings: ATP 1 μM; Wp 2 nM
T1 construct: host or cells: HEK-293, stably double-transfected FPR2+/Gαq+
T1 sequence (P25090 1-351): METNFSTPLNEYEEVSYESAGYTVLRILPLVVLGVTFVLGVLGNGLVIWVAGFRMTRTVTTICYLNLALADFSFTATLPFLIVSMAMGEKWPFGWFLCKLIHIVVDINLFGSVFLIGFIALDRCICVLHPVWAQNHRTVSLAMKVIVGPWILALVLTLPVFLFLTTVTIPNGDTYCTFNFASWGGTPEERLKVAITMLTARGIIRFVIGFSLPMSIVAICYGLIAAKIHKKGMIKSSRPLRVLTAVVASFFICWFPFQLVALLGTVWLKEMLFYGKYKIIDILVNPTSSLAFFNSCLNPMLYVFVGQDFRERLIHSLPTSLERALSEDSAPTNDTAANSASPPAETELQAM
Experimental: HEK-293-transfected and wt cell lines were cultured in Dulbecco’s modified Eagle’s medium (DMEM Glutamax, 4 mM L-glu and 4.50 g/L glucose—Gibco, Ireland) supplemented with heat-inactivated (30 min at 56C) 10% (v/v) FBS (Invitrogen, U.K.), 50 U penicillin, and 50 μg of streptomycin (Invitrogen, U.K.). As stably double-transfected FPR2^+/Gαq^+ HEK-293 cells were resistant to Geneticin and Hygromycin, these were used as selective antibiotics (500 and 100 μg/mL, respectively) to maintain the stable double transfection with the ALX/FPR2 receptor and the Gαq subunit coupled to it. Immediately prior to calcium measurement, fluorescently labeled cells were treated with 10^–11/–9/–7M LXA41 or sLXms using an injection system coupled to the fluorescence reader.
as §6, with “([…],” for “(1 mM ATP, a GPCR purinergic agonist,”
During calcium flux measurement, the kinetic steps involved were the following: the baseline fluorescent signal was measured for 20 s, followed by 100 s immediately after agonist injection. Subsequently, 2% Triton-X-100 was added to lyse the cells (monitoring for 20 s the maximal release of calcium ions in the extracellular environment) and, finally, 25 mM tetraacetic acid (EGTA) was added to chelate calcium ions (monitoring for additional 20 s the minimal detection of calcium ions in the extracellular environment) (Figure S7).
as §3

NF-κB = test system: NF-κB; design: method as in PMID 30213823; settings: LXA4 1 0.1 nM; 2 1 nM; cited from earlier work

Molecule	attenuation of IFNγ release, single-point controls (IFNγ)	intrinsic LDH release versus vehicle / spontaneous cell release (THP-1 LUCIA monocytes [1])	Total no of PMNs (C57BL/6J mice; Dex ip (1 mg/kg in Figure 9) + zymosan 40 mg/kg, n = 5 mice)	relative proportion of PMNs and monocytes/macrophages (flow cytometry) (C57BL/6J mice; peritoneal cells, data not shown)	Imax, IL-6 release, single-point controls (IL-6) [%]	effect on LPS-induced LDH (THP-1 LUCIA monocytes [2])	Imax, IL-1β release, single-point controls (IL-1β) [%]	enhancement of LPS-induced secretion of IL-8 (IL-8) [fold]	Ca^2+ mobilization in wild-type HEK-293 cells (wild-type HEK-293 cells)	Ca^2+ mobilization by positive controls (ALX/FPR2 receptor)	effect on TNF-α-stimulated NF-κB activity (NF-κB)
C[C@@H]1C[C@H]2[C@@H]3CCC4=CC(=O)C=C[C@]4(C)[C@@]3(F)[C@@H](O)C[C@]2(C)[C@@]1(O)C(=O)CO [Dex, dexamethasone, reference compound]	56 ± 2%	did not display any significant cytotoxic effect	2.4 ± 0.7 × 10^6/mL	not to be altered	98 ± 1	did not reduce LPS-induced LDH	86 ± 6	2.5	–	–	–
W-peptide [Wp]	–	–	–	–	–	–	–	–	without effect	Ca^2+ mobilization was observed	–
Nc1ncnc2c1ncn2[C@@H]1O[C@H](COP(=O)(O)OP(=O)(O)OP(=O)(O)O)[C@@H](O)[C@H]1O [ATP]	–	–	–	–	–	–	–	–	stimulated Ca^2+ mobilization	Ca^2+ mobilization was observed	–
CCCCC[C@@H](O)c1ccccc1/C=C/[C@@H](O)[C@@H](O)CCCC(=O)OC [Compound 2, benzo-LXA4, reference compound]	did not significantly alter	did not display any significant cytotoxic effect	–	–	42 ± 3	–	59 ± 4	–	–	–	reduced TNF-α-stimulated NF-κB activity
